Test results from ChEMBL document CHEMBL1152492, “DNA-targeting pyrroloquinoline-linked butenone and chalcones: synthesis and biological evaluation” (Eur J Med Chem, 2009).
pIC50: −log10 of the molar value. Calls of active or inactive are those of the source. The rule behind the calls is not given here.

How the values were obtained:
HL-60 = test: Antiproliferative activity against human HL60 cells after 72 hrs by trypan blue assay; format: functional, cell-based; details: HL-60, 72 h
HeLa = test: Antiproliferative activity against human HeLa cells after 72 hrs by trypan blue assay; format: functional, cell-based
[1] = Antiproliferative activity against human JR8 cells after 72 hrs by trypan blue assay; format: functional, cell-based; details: JR8, 72 h
Nucleic Acid = test: Binding affinity to salmon testes DNA assessed as occurrence of intercalative molecular complex by linear flow dichroism; format: nucleic-acid assay; details: Salmonidae
[2] = target: DNA topoisomerase 2-alpha (Homo sapiens) (UniProt P11388); test: Inhibition of human recombinant topoisomerase 2-mediated relaxation of supercoiled pBR322 DNA after 60 mins by agarose gel electrophoresis
[3] = target: DNA topoisomerase 2-alpha (Homo sapiens) (UniProt P11388); test: Inhibition of human recombinant topoisomerase 2 catalytic activity at 20 uM by agarose gel electrophoresis
[4] = target: DNA topoisomerase 2-alpha (Homo sapiens) (UniProt P11388); test: Inhibition of human recombinant topoisomerase 2 assessed as induction of linear pBR322 DNA formation upto 20 uM by agarose gel electrophoresis
[5] = target: DNA topoisomerase 2-alpha (Homo sapiens) (UniProt P11388); test: Inhibition of human recombinant topoisomerase 2 assessed as induction of linear pBR322 DNA formation at 50 uM by agarose gel electrophoresis
[6] = target: DNA topoisomerase 2-alpha (Homo sapiens) (UniProt P11388); test: Inhibition of human recombinant topoisomerase 2 assessed as induction of linear pBR322 DNA formation at 15 uM by agarose gel electrophoresis
[7] = target: DNA topoisomerase 2-alpha (Homo sapiens) (UniProt P11388); test: Inhibition of human recombinant topoisomerase 2-mediated relaxation of supercoiled pBR322 DNA at 10 uM after 60 mins by agarose gel electrophoresis

DNA topoisomerase 2-alpha (Homo sapiens), sequence (P11388 whole entry): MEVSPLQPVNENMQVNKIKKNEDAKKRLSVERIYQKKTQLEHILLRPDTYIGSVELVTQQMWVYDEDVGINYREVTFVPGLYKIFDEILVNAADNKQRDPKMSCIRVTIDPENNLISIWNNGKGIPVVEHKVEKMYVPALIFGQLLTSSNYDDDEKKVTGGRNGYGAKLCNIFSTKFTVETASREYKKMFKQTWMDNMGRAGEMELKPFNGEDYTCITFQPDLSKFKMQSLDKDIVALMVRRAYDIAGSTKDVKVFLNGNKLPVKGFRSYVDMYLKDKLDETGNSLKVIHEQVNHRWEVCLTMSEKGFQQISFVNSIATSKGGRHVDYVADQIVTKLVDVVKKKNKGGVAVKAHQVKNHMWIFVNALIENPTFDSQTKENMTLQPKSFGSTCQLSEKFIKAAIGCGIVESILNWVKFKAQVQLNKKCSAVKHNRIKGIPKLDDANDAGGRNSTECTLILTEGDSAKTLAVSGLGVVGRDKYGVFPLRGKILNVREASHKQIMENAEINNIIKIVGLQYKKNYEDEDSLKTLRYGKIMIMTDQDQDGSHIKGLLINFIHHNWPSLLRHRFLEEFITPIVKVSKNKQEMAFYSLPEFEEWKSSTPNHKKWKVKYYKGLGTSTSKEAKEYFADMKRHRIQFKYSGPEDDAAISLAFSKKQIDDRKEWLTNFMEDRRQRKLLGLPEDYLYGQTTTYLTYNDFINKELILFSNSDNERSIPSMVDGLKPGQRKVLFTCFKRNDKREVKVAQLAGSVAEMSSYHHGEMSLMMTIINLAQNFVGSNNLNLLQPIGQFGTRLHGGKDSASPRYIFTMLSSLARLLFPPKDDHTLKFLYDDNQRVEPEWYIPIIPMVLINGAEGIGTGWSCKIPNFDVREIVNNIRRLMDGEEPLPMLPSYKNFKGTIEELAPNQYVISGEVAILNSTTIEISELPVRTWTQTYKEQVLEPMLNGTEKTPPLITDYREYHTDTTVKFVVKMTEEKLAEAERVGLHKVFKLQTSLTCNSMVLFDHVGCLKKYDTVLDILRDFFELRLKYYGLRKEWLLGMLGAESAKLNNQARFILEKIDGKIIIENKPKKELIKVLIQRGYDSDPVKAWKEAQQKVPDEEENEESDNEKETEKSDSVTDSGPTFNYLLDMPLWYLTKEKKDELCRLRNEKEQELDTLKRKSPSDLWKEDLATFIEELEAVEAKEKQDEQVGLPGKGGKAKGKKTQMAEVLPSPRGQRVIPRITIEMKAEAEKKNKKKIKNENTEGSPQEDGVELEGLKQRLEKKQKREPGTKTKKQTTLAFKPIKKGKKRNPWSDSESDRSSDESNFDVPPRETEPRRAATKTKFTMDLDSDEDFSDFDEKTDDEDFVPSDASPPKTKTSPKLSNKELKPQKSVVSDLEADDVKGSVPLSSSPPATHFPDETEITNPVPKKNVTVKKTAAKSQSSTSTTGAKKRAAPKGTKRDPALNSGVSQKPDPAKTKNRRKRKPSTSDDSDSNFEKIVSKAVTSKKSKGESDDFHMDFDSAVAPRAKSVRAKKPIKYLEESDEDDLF

Compound	pIC50 (HL-60)	pIC50 (HeLa)	pIC50 [1]	Activity (Nucleic Acid)	Activity [2]	Activity [3]	Activity [4]	Activity [5]	Activity [6]	Activity [7]
O=C(/C=C/c1ccc[nH]1)c1ccc(Nc2ccnc3ccc4[nH]ccc4c23)cc1	5.25	4.74	5.48	–	–	–	–	–	–	–
O=C(/C=C/c1ccc[nH]1)c1ccccc1	< 4.70	< 4.70	< 4.70	inactive	–	–	–	–	–	–
CC(=O)/C=C/c1ccc(Nc2ccnc3ccc4[nH]ccc4c23)cc1	5.64	5.15	5.80	Active	Dose-dependent effect	inactive	inactive	inactive	–	–
Cc1c2ccncc2c(C)c2c1[nH]c1ccccc12 [ELLIPTECINE]	–	–	5.96	Active	–	–	–	–	–	–
COc1cc(NS(C)(=O)=O)ccc1Nc1c2ccccc2nc2ccccc12	–	–	–	Active	–	–	–	–	Active	–
O=C(/C=C/c1ccc([N+](=O)[O-])cc1)c1ccccc1	5.22	< 4.70	5.11	inactive	–	inactive	–	–	–	–
O=C(/C=C/c1cccs1)c1ccc(Nc2ccnc3ccc4[nH]ccc4c23)cc1	5.49	5.28	5.68	–	–	–	–	–	–	–
CC(=O)/C=C/c1ccccc1 [BUTENONE]	–	–	–	inactive	–	–	–	–	–	–
O=C(/C=C/c1ccc([N+](=O)[O-])cc1)c1ccc(Nc2ccnc3ccc4[nH]ccc4c23)cc1	5.36	4.98	5.92	–	Dose-dependent effect	Active	inactive	inactive	–	Active
